“Also recorded” adds a separate entry of the source. Read-outs that look alike come from different tables or passages of the source.
Columns and labels:
SKOV3 CSCs (SKOV3 SP) = test: Cell viability (CellTiter-Glo) on SKOV3 spheres (CSCs); format: cell-based, human; details: read-out: IC50 Cancer Stem Cell SKOV3 SP
Protocol: (§1) Cell Cultures Human ovarian carcinoma cell lines HEY A8 and SKOV3 were gifts from Professor Alice Wong's group (The University of Hong Kong). Cells were grown in Dulbecco's Modified Eagle (DMEM) medium supplemented with 10% FBS and 1% penicillin/streptomycin at 37° C. in a humidified atmosphere containing […] CO2. Isolation and culture of spheres were performed in serum-free stem-cell-selective condition as described in literature Ip etl. Oncogene 2014, 5, 9133-9149. Briefly, 1-2 weeks after plating, non-adherent spherical clusters of cells could be observed and were separated from single cells by low speed centrifugation. After 8th to 10th passages, the non-adherent spherical clusters of cells appeared as distinct spheres. Using this selection condition, HEY A8 spheres (HEY A8 SP) or SKOV3 spheres (SKOV3 SP) could be enzymatically dissociated and reformed into spheres within 3 days under stem-cell-selective condition. To allow differentiation, dissociated sphere cells were plated on tissue culture plates in medium (MCDB 105:M199=1:1) supplemented with 10% FBS and 1% PS.
HEY A8 SP cells or SKOV3 SP cells (5×10^4) were plated in triplicate in 10 mL serum-free MCDB105 medium in 100-mm Petri dish for 7 days to form spheres. […] After that, the reagent was transferred into 96-well plates and cell viability was measured using a microplate reader (SpectraMax 340PC 384, Molecular Devices).

MDCK = test: Toxicity against normal cell line MDCK; format: cell-based
Excerpt: (§2) Fourteen compounds including aminoxy acid monomers and dipeptides have been identified to show toxicity against HEY A8 CSCs. The half maximal inhibitory concentration (IC50) values of compounds sff-2-112, sff-2-124, sff-2-132 and sff-2-100 towards adherent cancer HEY A8, SKOV3 cells and CSCs were further determined. […] Especially compound sff-2-132, its selectivity to CSCs is up to 60-fold higher than that to cancer cells. Their toxicity against other normal cell lines NIH3T3, HEK293 and MDCK were also tested and the IC50 values were summarized in Table 1.

HEY A8 cells = test: Sphere formation in suspension culture after treatment; format: cell-based, human; details: 15 or 30 μM for 48 h, 3 days recovery, 5 days sphere formation
Protocol: Hey A8 cells were treated with compounds DMSO sff-2-112 (“Example 1”) or sff-2-132 (“Example 4”) at the concentration of 15 or 30 μM for 48 h. Then cells were allowed to recover and grow in full medium in cell culture dishes for 3 days. After that, cells at the density of 5×10^4 cells/mL were transferred into low attachment dishes for 5 days to allow sphere formation. The number of spheres in each dish were counted.

HEY A8 cancer cells = test: Apoptosis, Annexin V / PI flow cytometry, cancer cells; format: cell-based, human; details: 30 μM, 2 days
Protocol: A suspension of HEY A8 cells at the concentration of 5×10^4 cells/mL in DMEM medium were seeded into 60-mm cell culture dishes. Cells were incubated at 37° C. in a humidified atmosphere containing 5% CO2 for 24 h followed by the addition of 4 mL fresh medium or medium containing compound sff-2-112 (“Example 1”) or sff-2-132 (“Example 4”) at different concentration. […] After 2 days, the medium was aspirated and cells were washed with cold PBS twice, and then stained with PI and Annexin V according to the manufacture's instruction (Dead Cell Apoptosis Kit with Annexin V Alexa Fluor™ 488 & Propidium Iodide, Thermo Fisher). Cells were analyzed by flow cytometry (BD FACS CantoII Analyzer).

NIH3T3 = test: Toxicity against normal cell line NIH3T3; format: cell-based
Excerpt: as §2

HEY A8 CSCs [1] = test: In vivo tumor seeding ability of pretreated HEY A8 CSCs; details: CSCs pretreated 2 days in vitro, 10^6 cells injected subcutaneously in mice, 25 days
Protocol: In vivo tumor seeding ability of cells after treatment with compound sff-2-112 (“Example 1”) or sff-2-132 (“Example 4”) was evaluated. Taxol was used as a negative control. For this experiment, HEY A8 CSCs were pretreated with sff-2-112 (“Example 1”), sff-2-132 (“Example 4”) or Taxol for 2 days in suspension medium, respectively. Then cells were allowed to proliferate in full medium in the absence of drugs for 10 days. After that, 10^6 cells were injected into mice subcutaneously. Tumor size was measured for 25 days after injection.

HEY A8 CSCs [2] = test: Apoptosis, Annexin V / PI flow cytometry, CSCs; format: cell-based, human; details: 5 μM, 2 days; DMSO 4.92%
Protocol: A suspension of HEY A8 cells at the concentration of 5×10^4 cells/mL in DMEM medium were seeded into 60-mm cell culture dishes. Cells were incubated at 37° C. in a humidified atmosphere containing 5% CO2 for 24 h followed by the addition of 4 mL fresh medium or medium containing compound sff-2-112 (“Example 1”) or sff-2-132 (“Example 4”) at different concentration. Medium containing 0.1% DMSO was used as negative control. After 2 days, the medium was aspirated and cells were washed with cold PBS twice, and then stained with PI and Annexin V according to the manufacture's instruction (Dead Cell Apoptosis Kit with Annexin V Alexa Fluor™ 488 & Propidium Iodide, Thermo Fisher). Cells were analyzed by flow cytometry (BD FACS CantoII Analyzer).

HEY A8 CSCs (HEY A8 SP) = test: Toxicity / cell viability (CellTiter-Glo) on HEY A8 spheres (CSCs); format: cell-based, human; details: for rank of toxicity among the 14 molecules on HEY A8 CSCs: 5 μM; for rank of toxicity among the 14 molecules on HEY A8 CSCs / cell viability of HEY A8 CSCs (toxicity): 48 h; for IC50: HEY A8 spheres, 48 h incubation, read-out: IC50 Cancer Stem Cell HeyA8 SP; for cell viability of HEY A8 CSCs (toxicity): compound 5 μM; for selectivity towards ovarian CSCs over ovarian cancer cells and normal cells: from IC50 values, FIG. 4 and Table 1
Protocol: Aminoxy acids were synthesized by the standard peptide coupling procedures. The CSCs are obtained by spheroids culturing under suspension condition. It is confirmed that these spheres indeed contain significant higher population of cells with CD133 antigenic phenotype, which has been reported can represent ovarian CSCs (FIG. 2). After treatment with compounds for 48 h, the cell viability of CSCs was measured by using CELLTITER-GLO® luminescent reagent. Compound sff-3-85 (“Example 2”) were used at the dose of 10 μM, all the other compounds were used at the concentration of 5 μM. All experiments were performed three times and data is presented as mean±SD.
as §1
(§3) HEY A8 SP cells (5×10^4) were plated in triplicate in 10 mL serum-free MCDB105 medium in 100-mm Petri dish for 7 days to form spheres. Compound at the final concentration of 5 μM was added. The cells were further incubated at 37° C. for 48 h. After that cells were collected by centrifugation and the medium was removed. Then 100 μL CellTiter-Glo® Luminescent Cell Viability reagent was added into each tube, which was incubated for 10 min with shaking. After that, the reagent was transferred into 96-well plates and cell viability was measured using a microplate reader (SpectraMax 340PC 384, Molecular Devices).
as §3, with “A8 SP cells or SKOV3” for “A8”, “Then drugs” for “Compound”, “different” for “the final”, “were” for “of 5 μM was”, “μL of” for “μL”

IC50 (SKOV3 CSCs (SKOV3 SP); Homo sapiens, SK-OV-3, 48 h incubation) [µM] | SMILES | IC50 (SKOV3 CSCs (SKOV3 SP); 48 h incubation) [µM] | IC50 (MDCK) [µM] | sphere forming ability / number of spheres relative to controls (HEY A8 cells) | Annexin V positive cells, cancer cells (HEY A8 cancer cells) [%] | IC50 (NIH3T3) [µM] | tumor-seeding ability / tumor size of pretreated cells (HEY A8 CSCs [1]) | Annexin V positive cells, CSCs (HEY A8 CSCs [2]) [%] | rank of toxicity among the 14 molecules on HEY A8 CSCs (HEY A8 CSCs (HEY A8 SP)) | IC50 (HEY A8 CSCs (HEY A8 SP)) [µM] | cell viability of HEY A8 CSCs (toxicity) (HEY A8 CSCs (HEY A8 SP)) | selectivity towards ovarian CSCs over ovarian cancer cells and normal cells (HEY A8 CSCs (HEY A8 SP)) | IC50 (MDCK; Canis lupus familiaris, MDCK) [µM] | IC50 (NIH3T3; Mus musculus, NIH3T3) [µM] | IC50 (HEY A8 CSCs (HEY A8 SP); Homo sapiens) [µM] | selectivity to CSCs over cancer cells (HEY A8 CSCs (HEY A8 SP); ovarian CSCs vs adherent cancer cells (and normal cells))
– | O=C(NO[C@H](COCc1ccccc1)C(=O)Nc1ccccc1)c1cc(C(F)(F)F)cc(C(F)(F)F)c1 [sff-2-112] | 0.9 ± 0.9 | 25.1 ± 1.1 | significant decrease in the number of spheres; also recorded: significantly reduced sphere forming ability | 8.21 | 30.5 ± 1.1 | significant decrease in tumor-seeding ability; also recorded: significantly decreased tumor size | 21.0 | highest toxicity | 1.5 ± 1.3 | significantly decreased the cell viability | selectively induce the death of ovarian CSCs | – | – | – | –
1 ± 0.9 | CC(C)(C)OC(=O)[C@@H](COCc1ccccc1)ONC(=O)c1cc(C(F)(F)F)cc(C(F)(F)F)c1 [sff-2-132] | – | – | significant decrease in the number of spheres; also recorded: significantly reduced sphere forming ability | 1.30 | – | significant decrease in tumor-seeding ability; also recorded: significantly decreased tumor size | 30.4 | highest toxicity | – | significantly decreased the cell viability | best selectivity; also recorded: selectively induce the death of ovarian CSCs | 49.1 ± 0.4 | 58 ± 2.2 | 1 ± 0.9 | up to 60 fold
